Results: patent US8008305B2, “TAAR1 ligands” (Hoffmann-La Roche Inc., priority 2007, dated 2011)

target: T1, TAAR1 (Mus musculus, UniProt Q923Y8); test: Radioligand binding ([3H]-rac-2-(1,2,3,4-tetrahydro-1-naphthyl)-2-imidazoline) on membranes of HEK293 cells stably expressing TAAR1; conditions: TAAR1 binding assay; species not given; read-out: calculated Kd value of the radioligand
T1 construct: expressed in transfected cells; host or cells: HEK293 cells (ATCC # CRL-1573), stably transfected with pIRESneo2 expression plasmid; membranes prepared
Procedure: Construction of TAAR Expression Plasmids and Stably Transfected Cell Lines
For the construction of expression plasmids the coding sequences of human, rat and mouse TAAR 1 were amplified from genomic DNA essentially as described by Lindemann et al.. The Expand High Fidelity PCR System (Roche Diagnostics) was used with 1.5 mM Mg^2+ and purified PCR products were cloned into pCR2.1-TOPO cloning vector (Invitrogen) following the instructions of the manufacturer. PCR products were subcloned into the pIRESneo2 vector (BD Clontech, Palo Alto, Calif.), and expression vectors were sequence verified before introduction in cell lines.
HEK293 cells (ATCC # CRL-1573) were cultured essentially as described Lindemann et al. (2005). For the generation of stably transfected cell lines HEK293 cells were transfected with the pIRESneo2 expression plasmids containing the TAAR coding sequences (described above) with Lipofectamine 2000 (Invitrogen) according to the instructions of the manufacturer, and 24 hrs post transfection the culture medium was supplemented with 1 mg/ml G418 (Sigma, Buchs, Switzerland). After a culture period of about 10 d clones were isolated, expanded and tested for responsiveness to trace amines (all compounds purchased from Sigma) with the cAMP Biotrak Enzyme immunoassay (EIA) System (Amersham) following the non-acetylation EIA procedure provided by the manufacturer.
Membrane Preparation and Radioligand Binding
Cells at confluence were rinsed with ice-cold phosphate buffered saline without Ca^2+ and Mg^2+ containing 10 mM EDTA and pelleted by centrifugation at 1000 rpm for 5 min at 4° C. The pellet was then washed twice with ice-cold phosphate buffered saline and cell pellet was frozen immediately by immersion in liquid nitrogen and stored until use at −80° C. Cell pellet was then suspended in 20 ml HEPES-NaOH (20 mM), pH 7.4 containing 10 mM EDTA, and homogenized with a Polytron (PT 3000, Kinematica) at 10,000 rpm for 10 s. The homogenate was centrifuged at 48,000×g for 30 min at 4° C. and the pellet resuspended in 20 ml HEPES-NaOH (20 mM), pH 7.4 containing 0.1 mM EDTA (buffer A), and homogenized with a Polytron at 10,000 rpm for 10 s. The homogenate was then centrifuged at 48,000×g for 30 min at 4° C. and the pellet resuspended in 20 ml buffer A, and homogenized with a Polytron at 10,000 rpm for 10 s. Protein concentration was determined by the method of Pierce (Rockford, Ill.). The homogenate was then centrifuged at 48,000×g for 10 min at 4° C., resuspended in HEPES-NaOH (20 mM), pH 7.0 including MgCl2 (10 mM) and […] homogenized with a Polytron at 10,000 rpm for 10 s.
Binding assay was performed at 4° C. in a final volume of 1 ml, and with an incubation time of 30 min. The radioligand [^3H]-rac-2-(1,2,3,4-tetrahydro-1-naphthyl)-2-imidazoline was used at a concentration equal to the calculated Kd value of 60 nM to give a bound at around 0.1% of the total added radioligand concentration, and a specific binding which represented approximately 70-80% of the total binding. Non-specific binding was defined as the amount of [^3H]-rac-2-(1,2,3,4-tetrahydro-1-naphthyl)-2-imidazoline bound in the presence of the appropriate unlabelled ligand (10 μM). Competing ligands were tested in a wide range of concentrations (10 pM-30 μM). […] Each experiment was performed in duplicate. All incubations were terminated by rapid filtration through UniFilter-96 plates (Packard Instrument Company) and glass filter GF/C, pre-soaked for at least 2 h in polyethylenimine 0.3%, and using a Filtermate 96 Cell Harvester (Packard Instrument Company). The tubes and filters were then washed 3 times with 1 ml aliquots of cold buffer B. Filters were not dried and soaked in Ultima gold (45 μl/well, Packard Instrument Company) and bound radioactivity was counted by a TopCount Microplate Scintillation Counter (Packard Instrument Company).

T1 sequence (Q923Y8 whole entry): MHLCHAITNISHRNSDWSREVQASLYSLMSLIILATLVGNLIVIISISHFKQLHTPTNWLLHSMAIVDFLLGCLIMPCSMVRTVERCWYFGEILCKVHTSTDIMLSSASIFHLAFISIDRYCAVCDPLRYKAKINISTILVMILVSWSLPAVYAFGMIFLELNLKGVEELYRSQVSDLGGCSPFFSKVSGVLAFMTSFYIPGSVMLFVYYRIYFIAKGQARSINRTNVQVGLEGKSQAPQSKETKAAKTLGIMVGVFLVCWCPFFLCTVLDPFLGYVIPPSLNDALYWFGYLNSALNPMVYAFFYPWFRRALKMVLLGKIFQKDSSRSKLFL

SMILES	Kd [nM]
c1ccc2c(c1)CCCC2C1=NCCN1 (racemic) [[^3H]-rac-2-(1,2,3,4-tetrahydro-1-naphthyl)-2-imidazoline, reference compound]	60

same assay, conditions: mouse TAAR1; radioligand at 60 nM, 4° C., 30 min incubation

Ki [µM]	SMILES
0.006	CN1CCN(c2ncc(C(=O)NCCc3ccc(Cl)cc3)cc2Br)CC1 [Example 31, 5-Bromo-N-[2-(4-chloro-phenyl)-ethyl]-6-(4-methyl-piperazin-1-yl)-nicotinamide]
0.012	CN1CCN(c2ccc(C(=O)NCCC3CCCCC3)cn2)CC1 [Example 54, N-(2-Cyclohexyl-ethyl)-6-(4-methyl-piperazin-1-yl)-nicotinamide]
0.071	CN1CCN(c2ccc(C(=O)NCc3ccccc3)cn2)CC1 [Example 1, N-Benzyl-6-(4-methyl-piperazin-1-yl)-nicotinamide]
0.062	CN1CCN(c2ccc(C(=O)NCC3CCCCC3)cn2)CC1 [Example 55, N-Cyclohexylmethyl-6-(4-methyl-piperazin-1-yl)-nicotinamide]
0.081	O=C(NCCc1ccc(Cl)cc1)c1ccc(N2CCNCC2)nc1 [Example 26, N-[2-(4-Chloro-phenyl)-ethyl]-6-piperazin-1-yl-nicotinamide]
0.005	CN1CCN(c2ncc(C(=O)NCCc3ccc(Oc4ccccc4)cc3)cc2Br)CC1 [Example 32, 5-Bromo-6-(4-methyl-piperazin-1-yl)-N-[2-(4-phenoxy-phenyl)-ethyl]-nicotinamide]
0.019	O=C(NCCc1ccc(Cl)cc1)c1cnc(N2CCNCC2)c(Br)c1 [Example 33, 5-Bromo-N-[2-(4-chloro-phenyl)-ethyl]-6-piperazin-1-yl-nicotinamide]
0.044	CN1CCN(c2ccc(C(=O)NCCc3ccccc3)cn2)CC1 [A, 6-(4-methyl-piperazin-1-yl)-N-phenethyl-nicotinamide, reference compound]
0.013	CN1CCN(c2ccc(C(=O)NCc3ccc(Cl)cc3)cn2)CC1 [Example 2]
0.009	O=C(NCCc1ccc(Oc2ccccc2)cc1)c1cnc(N2CCNCC2)c(Br)c1 [Example 34, 5-Bromo-N-[2-(4-phenoxy-phenyl)-ethyl]-6-piperazin-1-yl-nicotinamide]
0.091	COc1ccc(CCNC(=O)c2ccc(N3CCN(C)CC3)nc2)cc1 [Example 9, N-[2-(4-Methoxy-phenyl)-ethyl]-6-(4-methyl-piperazin-1-yl)-nicotinamide]
0.006	CN1CCN(c2ccc(C(=O)NCCc3ccc(OCc4ccccc4)cc3)cn2)CC1 [Example 15, N-[2-(4-Benzyloxy-phenyl)-ethyl]-6-(4-methyl-piperazin-1-yl)-nicotinamide]
0.043	CN1CCN(c2ccc(C(=O)NCCc3ccc4c(c3)OCO4)cn2)CC1 [Example 11, N-(2-Benzo[1,3]dioxol-5-yl-ethyl)-6-(4-methyl-piperazin-1-yl)-nicotinamide]
0.023	CN1CCN(c2ccc(C(=O)NCCc3cn(C)c4ccccc34)cn2)CC1 [Example 18, N-[2-(1-Methyl-1H-indol-3-yl)-ethyl]-6-(4-methyl-piperazin-1-yl)-nicotinamide]
0.004	CN1CCN(c2ccc(C(=O)NCCc3ccc(Oc4ccccc4)cc3)cn2)CC1 [Example 13, 6-(4-Methyl-piperazin-1-yl)-N-[2-(4-phenoxy-phenyl)-ethyl]-nicotinamide]
0.049	COc1cccc(CCNC(=O)c2ccc(N3CCN(C)CC3)nc2)c1 [Example 10, N-[2-(3-Methoxy-phenyl)-ethyl]-6-(4-methyl-piperazin-1-yl)-nicotinamide]
0.028	CN1CCN(c2ccc(C(=O)NCCc3ccc(-c4ccccc4)cc3)cn2)CC1 [Example 12, N-(2-Biphenyl-4-yl-ethyl)-6-(4-methyl-piperazin-1-yl)-nicotinamide]
0.028	O=C(NCCc1ccc(OCc2ccccc2)cc1)c1ccc(N2CCNCC2)nc1 [Example 30, N-[2-(4-Benzyloxy-phenyl)-ethyl]-6-piperazin-1-yl-nicotinamide]
0.068	CN1CCN(c2ccc(C(=O)NCCc3cccc(Oc4ccccc4)c3)cn2)CC1 [Example 14, 6-(4-Methyl-piperazin-1-yl)-N-[2-(3-phenoxy-phenyl)-ethyl]-nicotinamide]
0.005	CN1CCN(c2ccc(C(=O)NCCc3ccc(Cl)cc3)cn2)CC1 [Example 6, N-[2-(4-Chloro-phenyl)-ethyl]-6-(4-methyl-piperazin-1-yl)-nicotinamide]
0.071	O=C(NCCc1cccc(Oc2ccccc2)c1)c1ccc(N2CCNCC2)nc1 [Example 29, N-[2-(3-Phenoxy-phenyl)-ethyl]-6-piperazin-1-yl-nicotinamide]
0.016	O=C(NCCc1ccc(Oc2ccccc2)cc1)c1ccc(N2CCNCC2)nc1 [Example 28, N-[2-(4-Phenoxy-phenyl)-ethyl]-6-piperazin-1-yl-nicotinamide]
0.01	CN1CCN(c2ccc(C(=O)NCCc3cccc(C(F)(F)F)c3)cn2)CC1 [Example 8, 6-(4-Methyl-piperazin-1-yl)-N-[2-(3-trifluoromethyl-phenyl)-ethyl]-nicotinamide]
0.019	CN1CCC(Oc2ccc(C(=O)NCCc3ccc(Oc4ccccc4)cc3)cn2)CC1 [Example 24, 6-(1-Methyl-piperidin-4-yloxy)-N-[2-(4-phenoxy-phenyl)-ethyl]-nicotinamide]
0.027	CN1CCN(c2ccc(C(=O)NCCc3cccc(Cl)c3)cn2)CC1 [Example 7, N-[2-(3-Chloro-phenyl)-ethyl]-6-(4-methyl-piperazin-1-yl)-nicotinamide]
